Experimental data taken from patent US20240150303A1, “DIAMINOTRIAZINE COMPOUNDS” (BASF SE, priority 2021, published 2024).
Values joined by “and” are separate entries in the source; they are usually repeats but may differ in a detail not shown here. Identical values can stand only once.

Legend:
Assay in all cases: greenhouse pre-emergence herbicidal test
Format in all cases: in vivo
Amaranthus retroflexus = tested on: Amaranthus retroflexus
Excerpt: (§1) The seeds of the test plants were sown separately for each species. For the pre-emergence treatment, the active ingredients, which had been suspended or emulsified in water, were applied directly after sowing by means of finely distributing nozzles. The containers were irrigated gently to promote germination and growth and subsequently covered with transparent plastic hoods until the plants had rooted. This cover caused uniform germination of the test plants, unless this had been impaired by the active ingredients. […] The test period extended over 2 to 4 weeks. During this time, the plants were tended, and their response to the individual treatments was evaluated. Evaluation was carried out using a scale from 0 to 100. 100 means no emergence of the plants, or complete destruction of at least the aerial moieties, and 0 means no damage, or normal course of growth. A moderate herbicidal activity is given at values of at least 60, a good herbicidal activity is given at values of at least 70, and a very good herbicidal activity is given at values of at least 85. The plants used in the greenhouse experiments were of the following species: [table]

Setaria faberi = tested on: Setaria faberi
Excerpt: as §1

Abutilon theophrasti = tested on: Abutilon theophrasti
Excerpt: (§2) The culture containers used were plastic flowerpots containing loamy sand with approximately 3.0% of humus as the substrate. The seeds of the test plants were sown separately for each species.
(§3) For the pre-emergence treatment, the active ingredients, which had been suspended or emulsified in water, were applied directly after sowing by means of finely distributing nozzles.
(§4) The containers were irrigated gently to promote germination and growth and subsequently covered with transparent plastic hoods until the plants had rooted. This cover caused uniform germination of the test plants, unless this had been impaired by the active ingredients.
(§5) Depending on the species, the plants were kept at 10-25° C. or 20-35° C., respectively.
(§6) The test period extended over 2 to 4 weeks. During this time, the plants were tended, and their response to the individual treatments was evaluated.
(§7) Evaluation was carried out using a scale from 0 to 100. 100 means no emergence of the plants, or complete destruction of at least the aerial moieties, and 0 means no damage, or normal course of growth. A moderate herbicidal activity is given at values of at least 60, a good herbicidal activity is given at values of at least 70, and a very good herbicidal activity is given at values of at least 85.
(§8) The plants used in the greenhouse experiments were of the following species: […]

Alopercurus myosuroides = tested on: Alopercurus myosuroides
Excerpt: as §2, §3, §4, §5, §6, §7, §8

Apera spica-venti = tested on: Apera spica-venti
Excerpt: as §2, §3, §4, §5, §6, §7, §8

Lolium multiflorum = tested on: Lolium multiflorum
Excerpt: as §2, §3, §4, §5, §6, §7, §8

Echinocloa crus-galli = tested on: Echinocloa crus-galli
Excerpt: as §1

Digitaria sanguinalis = tested on: Digitaria sanguinalis
Excerpt: as §2, §3, §4, §5, §6, §7, §8

CCOc1c(Br)cc(F)c(Cl)c1Nc1nc(N)nc(C(C)(C)F)n1 [Example 30]
herbicidal activity (Amaranthus retroflexus; 31 g/ha): 85%
herbicidal activity (Setaria faberi; 31 g/ha): 100%
herbicidal activity (Abutilon theophrasti; 31 g/ha): 100%
herbicidal activity (Alopercurus myosuroides; 31 g/ha): 100%
herbicidal activity (Apera spica-venti; 31 g/ha): 85%

CCC(C)(F)c1nc(N)nc(Nc2c(C)c(Cl)cc(Cl)c2OC)n1 (racemic) [Example 102]
herbicidal activity (Setaria faberi; 62.5 g/ha): 80%
herbicidal activity (Alopercurus myosuroides; 62.5 g/ha): 85%
herbicidal activity (Lolium multiflorum; 62.5 g/ha): 90%

COc1c(Br)cc(C)c(C)c1Nc1nc(N)nc(C(C)(C)OC)n1 [Example 48]
herbicidal activity (Amaranthus retroflexus; 31 g/ha): 100%
herbicidal activity (Echinocloa crus-galli; 31 g/ha): 70%
herbicidal activity (Echinocloa crus-galli; 62 g/ha): 90%
herbicidal activity (Setaria faberi; 31 g/ha): 100%
herbicidal activity (Setaria faberi; 62 g/ha): 80%
herbicidal activity (Lolium multiflorum; 62 g/ha): 98%

CCOc1c(F)cc(F)c(Cl)c1Nc1nc(N)nc(C(C)(C)F)n1 [Example 24]
herbicidal activity (Amaranthus retroflexus; 31 g/ha): 100%
herbicidal activity (Amaranthus retroflexus; 62.5 g/ha): 100%
herbicidal activity (Echinocloa crus-galli; 62.5 g/ha): 100%
herbicidal activity (Setaria faberi; 62.5 g/ha): 100%
herbicidal activity (Apera spica-venti; 31 g/ha): 100%

COc1c(Br)cc(C)c(C)c1Nc1nc(N)nc(C2(F)CCCC2)n1 [Example 47]
herbicidal activity (Amaranthus retroflexus; 62.5 g/ha): 100%
herbicidal activity (Echinocloa crus-galli; 62.5 g/ha): 100%
herbicidal activity (Setaria faberi; 62 g/ha): 90%
herbicidal activity (Setaria faberi; 62.5 g/ha): 100%
herbicidal activity (Lolium multiflorum; 62 g/ha): 80%

COc1c(F)ccc(Br)c1Nc1nc(N)nc(C(C)(C)F)n1 [Example 3, N4-(6-bromo-3-fluoro-2-methoxy-phenyl)-6-(1-fluoro-1-methyl-ethyl)-1,3,5-triazine-2,4-diamine]
herbicidal activity (Amaranthus retroflexus; 250 g/ha): 100%
herbicidal activity (Echinocloa crus-galli; 62.5 g/ha): 100%
herbicidal activity (Setaria faberi; 250 g/ha): 100%
herbicidal activity (Abutilon theophrasti; 62.5 g/ha): 100%
herbicidal activity (Abutilon theophrasti; 250 g/ha): 100%
herbicidal activity (Digitaria sanguinalis; 62.5 g/ha): 100%

COc1c(Cl)cc(F)c(Br)c1Nc1nc(N)nc(C(C)(C)F)n1 [Example 11]
herbicidal activity (Amaranthus retroflexus; 32 g/ha): 100%
herbicidal activity (Echinocloa crus-galli; 250 g/ha): 100%
herbicidal activity (Setaria faberi; 250 g/ha): 100%
herbicidal activity (Abutilon theophrasti; 32 g/ha): 100%
herbicidal activity (Alopercurus myosuroides; 250 g/ha): 100%
herbicidal activity (Digitaria sanguinalis; 32 g/ha): 100%

CC(C)(F)c1nc(N)nc(Nc2c(Cl)ccc(F)c2OCC#CC2CC2)n1 [Example 52]
herbicidal activity (Amaranthus retroflexus; 62 g/ha): 100%
herbicidal activity (Echinocloa crus-galli; 62 g/ha): 100%
herbicidal activity (Echinocloa crus-galli; 62.5 g/ha): 100%
herbicidal activity (Setaria faberi; 62.5 g/ha): 100%
herbicidal activity (Abutilon theophrasti; 62 g/ha): 100%
herbicidal activity (Apera spica-venti; 62.5 g/ha): 100%

COc1c(Cl)cc(C)c(C)c1Nc1nc(N)nc(C(C)(C)F)n1 [Example 15]
herbicidal activity (Echinocloa crus-galli; 125 g/ha): 100%
herbicidal activity (Setaria faberi; 31 g/ha): 90%
herbicidal activity (Setaria faberi; 125 g/ha): 100%
herbicidal activity (Alopercurus myosuroides; 31 g/ha): 95%
herbicidal activity (Alopercurus myosuroides; 125 g/ha): 100%
herbicidal activity (Lolium multiflorum; 31 g/ha): 95%

COc1c(Cl)cc(Cl)c(C)c1Nc1nc(N)nc(C(C)(C)OC)n1 [Example 37]
herbicidal activity (Amaranthus retroflexus; 62.5 g/ha): 100%
herbicidal activity (Echinocloa crus-galli; 62.5 g/ha): 100%
herbicidal activity (Setaria faberi; 125 g/ha): 85%
herbicidal activity (Abutilon theophrasti; 62.5 g/ha): 98%
herbicidal activity (Abutilon theophrasti; 125 g/ha): 85%
herbicidal activity (Apera spica-venti; 125 g/ha): 100%

COc1c(Cl)cc(Cl)c(C)c1Nc1nc(N)nc(C(C)F)n1 (stereo not drawn) [Example 35]
herbicidal activity (Amaranthus retroflexus; 62.5 g/ha): 100%
herbicidal activity (Amaranthus retroflexus; 125 g/ha): 100%
herbicidal activity (Echinocloa crus-galli; 62.5 g/ha): 100%
herbicidal activity (Abutilon theophrasti; 62.5 g/ha): 100%
herbicidal activity (Abutilon theophrasti; 125 g/ha): 95%
herbicidal activity (Apera spica-venti; 125 g/ha): 100%

C#CCOc1c(Br)cc(F)c(Cl)c1Nc1nc(N)nc(C(C)(C)F)n1 [Example 31]
herbicidal activity (Amaranthus retroflexus; 250 g/ha): 100%
herbicidal activity (Echinocloa crus-galli; 250 g/ha): 100%
herbicidal activity (Setaria faberi; 31 g/ha): 100%
herbicidal activity (Abutilon theophrasti; 31 g/ha): 100%
herbicidal activity (Abutilon theophrasti; 250 g/ha): 100%
herbicidal activity (Apera spica-venti; 31 g/ha): 100%

COc1c(Br)ccc(Cl)c1Nc1nc(N)nc(C(C)(C)F)n1 [Example 4]
herbicidal activity (Amaranthus retroflexus; 250 g/ha): 100%
herbicidal activity (Echinocloa crus-galli; 62.5 g/ha): 100%
herbicidal activity (Echinocloa crus-galli; 250 g/ha): 100%
herbicidal activity (Setaria faberi; 250 g/ha): 100%
herbicidal activity (Abutilon theophrasti; 62.5 g/ha): 100%
herbicidal activity (Digitaria sanguinalis; 62.5 g/ha): 100%

COc1c(Cl)cc(Cl)c(C)c1Nc1nc(N)nc(C(C)(F)CCl)n1 (racemic) [Example 104]
herbicidal activity (Setaria faberi; 62.5 g/ha): 85%
herbicidal activity (Alopercurus myosuroides; 62.5 g/ha): 90%
herbicidal activity (Lolium multiflorum; 62.5 g/ha): 100%

COc1c(Cl)cc(F)c(Cl)c1Nc1nc(N)nc(C(C)(C)F)n1 [Example 10]
herbicidal activity (Amaranthus retroflexus; 32 g/ha): 100%
herbicidal activity (Amaranthus retroflexus; 250 g/ha): 100%
herbicidal activity (Setaria faberi; 250 g/ha): 100%
herbicidal activity (Abutilon theophrasti; 32 g/ha): 100%
herbicidal activity (Abutilon theophrasti; 250 g/ha): 100%
herbicidal activity (Digitaria sanguinalis; 32 g/ha): 100%

COc1c(Cl)cc(Cl)c(Cl)c1Nc1nc(N)nc(C(C)(C)F)n1 [Example 2]
herbicidal activity (Amaranthus retroflexus; 250 g/ha): 100%
herbicidal activity (Echinocloa crus-galli; 62.5 g/ha): 100%
herbicidal activity (Echinocloa crus-galli; 250 g/ha): 100%
herbicidal activity (Setaria faberi; 250 g/ha): 100%
herbicidal activity (Abutilon theophrasti; 62.5 g/ha): 100%
herbicidal activity (Digitaria sanguinalis; 62.5 g/ha): 100%

C#CCOc1c(Cl)cc(C)c(Cl)c1Nc1nc(N)nc(C(C)(C)F)n1 [Example 64]
herbicidal activity (Echinocloa crus-galli; 62 g/ha): 100%
herbicidal activity (Setaria faberi; 62 g/ha): 100%
herbicidal activity (Abutilon theophrasti; 62 g/ha): 100%
herbicidal activity (Lolium multiflorum; 62 g/ha): 98%

COc1c(Cl)cc(Br)c(C)c1Nc1nc(N)nc(C(C)(C)F)n1 [Example 60]
herbicidal activity (Amaranthus retroflexus; 31 g/ha): 100%
herbicidal activity (Amaranthus retroflexus; 62 g/ha): 100%
herbicidal activity (Setaria faberi; 31 g/ha): 98%
herbicidal activity (Setaria faberi; 62 g/ha): 100%
herbicidal activity (Abutilon theophrasti; 62 g/ha): 100%
herbicidal activity (Apera spica-venti; 31 g/ha): 95%

COc1c(F)cc(F)c(C)c1Nc1nc(N)nc(C(C)(C)F)n1 [Example 8]
herbicidal activity (Amaranthus retroflexus; 32 g/ha): 100%
herbicidal activity (Echinocloa crus-galli; 125 g/ha): 100%
herbicidal activity (Setaria faberi; 125 g/ha): 100%
herbicidal activity (Abutilon theophrasti; 32 g/ha): 100%
herbicidal activity (Abutilon theophrasti; 125 g/ha): 100%
herbicidal activity (Digitaria sanguinalis; 32 g/ha): 100%

COc1c(Cl)cc(Cl)c(C)c1Nc1nc(N)nc(C2(F)CCCC2)n1 [Example 36]
herbicidal activity (Amaranthus retroflexus; 62.5 g/ha): 100%
herbicidal activity (Echinocloa crus-galli; 62.5 g/ha): 100%
herbicidal activity (Echinocloa crus-galli; 125 g/ha): 85%
herbicidal activity (Setaria faberi; 125 g/ha): 90%
herbicidal activity (Abutilon theophrasti; 62.5 g/ha): 100%
herbicidal activity (Apera spica-venti; 125 g/ha): 100%

COc1c(F)cc(Cl)c(C)c1Nc1nc(N)nc(C(C)(C)F)n1 [Example 7]
herbicidal activity (Amaranthus retroflexus; 32 g/ha): 100%
herbicidal activity (Echinocloa crus-galli; 125 g/ha): 100%
herbicidal activity (Setaria faberi; 125 g/ha): 100%
herbicidal activity (Abutilon theophrasti; 32 g/ha): 100%
herbicidal activity (Abutilon theophrasti; 125 g/ha): 100%
herbicidal activity (Digitaria sanguinalis; 32 g/ha): 100%

COc1c(F)cc(Br)c(C)c1Nc1nc(N)nc(C(C)(C)F)n1 [Example 5]
herbicidal activity (Amaranthus retroflexus; 250 g/ha): 100%
herbicidal activity (Echinocloa crus-galli; 250 g/ha): 100% and 85%
herbicidal activity (Setaria faberi; 250 g/ha): 100%
herbicidal activity (Abutilon theophrasti; 250 g/ha): 90%
herbicidal activity (Digitaria sanguinalis; 250 g/ha): 100%

COc1c(Br)cc(C)c(C)c1Nc1nc(N)nc(C(C)F)n1 (stereo not drawn) [Example 46]
herbicidal activity (Amaranthus retroflexus; 62 g/ha): 100%
herbicidal activity (Amaranthus retroflexus; 62.5 g/ha): 100%
herbicidal activity (Echinocloa crus-galli; 62.5 g/ha): 100%
herbicidal activity (Setaria faberi; 62 g/ha): 100%
herbicidal activity (Setaria faberi; 62.5 g/ha): 100%
herbicidal activity (Lolium multiflorum; 62 g/ha): 80%

COc1c(F)cc(F)c(C(F)(F)F)c1Nc1nc(N)nc(C(C)(C)F)n1 [Example 19]
herbicidal activity (Amaranthus retroflexus; 62.5 g/ha): 100%
herbicidal activity (Echinocloa crus-galli; 62 g/ha): 100%
herbicidal activity (Echinocloa crus-galli; 62.5 g/ha): 100%
herbicidal activity (Setaria faberi; 62 g/ha): 100%
herbicidal activity (Abutilon theophrasti; 62.5 g/ha): 100%
herbicidal activity (Alopercurus myosuroides; 62 g/ha): 100%

COc1c(C)ccc(C)c1Nc1nc(N)nc(C(C)(C)F)n1 [Example 14]
herbicidal activity (Amaranthus retroflexus; 62 g/ha): 100%
herbicidal activity (Echinocloa crus-galli; 62 g/ha): 100%
herbicidal activity (Echinocloa crus-galli; 125 g/ha): 98%
herbicidal activity (Setaria faberi; 125 g/ha): 100%
herbicidal activity (Abutilon theophrasti; 62 g/ha): 100%
herbicidal activity (Alopercurus myosuroides; 125 g/ha): 98%

COc1c(Br)cc(C)c(C)c1Nc1nc(N)nc(C(C)(C)F)n1 [Example 45]
herbicidal activity (Amaranthus retroflexus; 62.5 g/ha): 100%
herbicidal activity (Echinocloa crus-galli; 62.5 g/ha): 100%
herbicidal activity (Setaria faberi; 62 g/ha): 100%
herbicidal activity (Setaria faberi; 62.5 g/ha): 100%
herbicidal activity (Abutilon theophrasti; 62 g/ha): 100%
herbicidal activity (Lolium multiflorum; 62 g/ha): 100%
